This note sets out measurements from patent US10213415B2, “Compounds as opioid receptor modulators” (JANSSEN PHARMACEUTICA NV, priority 2004, dated 2019).

pKi: −log10 of the molar value.

The target in one test is T1, delta opioid receptor (Rattus norvegicus, UniProt P33533).
T1 construct: from tissue; host or cells: forebrain of male Wistar rats
Nature of the test: Rat Brain Delta Opioid Receptor Binding Assay-Version 1a ([3H]naltrindole). The note with it: rat forebrain membranes, 0.1 nM [3H]naltrindole; margin of error 10-20%; read-out: r Ki δ Ver. 1a. The method, then:
Male, Wistar rats (150-250 g, VAF, Charles River, Kingston, N.Y.) were killed by cervical dislocation, and their brains removed and placed immediately in ice-cold Tris HCl buffer (50 mM, pH 7.4). The forebrains were separated from the remainder of the brain by a coronal transection, beginning dorsally at the colliculi and passing ventrally through the midbrain-pontine junction. After dissection, the forebrains were homogenized in Tris buffer in a Teflon®-glass homogenizer. The homogenate was diluted to a concentration of 1 g of forebrain tissue per 80 mL Tris and centrifuged at 39,000×g for 10 min. The pellet was resuspended in the same volume of Tris buffer containing 5 mM MgCl2 with several brief pulses from a Polytron homogenizer. This particulate preparation was used for the delta opioid binding assay. Following incubation with 0.1 nM of the delta selective ligand [^3H]naltrindole at 25° C. for 2.5 h in a 96-well plate with total 1 mL, the plate contents were filtered through Wallac filtermat B sheets on a Tomtec 96-well harvester. The filters were rinsed three times with 2 mL of 10 mM HEPES (pH 7.4), and dried in a microwave oven. To each sample area, Betaplate Scint scintillation fluid (LKB) was added and the resulting radioactivity quantified on a LKB (Wallac) 1205 BetaPlate liquid scintillation counter. Kd and Ki values were calculated using the GraphPad PRISM data analysis program.

In the next test the target is T2, mu opioid receptor (Rattus norvegicus, UniProt P33535).
T2 construct: from tissue; host or cells: forebrain of male Wistar rats
Nature of the test: Rat Brain Mu Opioid Receptor Binding Assay (and Version 2a, [3H]DAMGO). The note with it: rat forebrain membranes, margin of error 10-20%, read-out: r Ki μ. In outline:
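Rat forebrain membranes from male Wistar rats in 50 mM Tris-HCl pH 7.4 with 5 mM MgCl2 incubated with 0.8 nM [3H]DAMGO for 2.5 h at 25° C., then filtered and counted. Data given as % inhibition of specific binding at single concentrations or as Ki from concentration series.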

Another test concerns the target T3, human mu opioid receptor (Homo sapiens, UniProt P35372).
T3 construct: purchased Perkin Elmer RBHOMM400UA; host or cells: Chinese Hamster Ovary cells (recombinant expression)
Nature of the test: Human Mu Opioid Receptor Binding Assay (CHO membranes, 3H-Damgo). The note with it: read-out: hKi μ. The procedure, abridged: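 Membranes from CHO cells expressing human mu opioid receptor, 300 μg/mL, in 50 mM Tris pH 7.5, 5 mM MgCl2. Incubated with compound and ³H-Damgo (3.6 nM before mixing) for 2 h at room temperature, filtered, counted by scintillation. Nonspecific binding with 1 μM unlabelled Damgo.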

T1 sequence (P33533 whole entry): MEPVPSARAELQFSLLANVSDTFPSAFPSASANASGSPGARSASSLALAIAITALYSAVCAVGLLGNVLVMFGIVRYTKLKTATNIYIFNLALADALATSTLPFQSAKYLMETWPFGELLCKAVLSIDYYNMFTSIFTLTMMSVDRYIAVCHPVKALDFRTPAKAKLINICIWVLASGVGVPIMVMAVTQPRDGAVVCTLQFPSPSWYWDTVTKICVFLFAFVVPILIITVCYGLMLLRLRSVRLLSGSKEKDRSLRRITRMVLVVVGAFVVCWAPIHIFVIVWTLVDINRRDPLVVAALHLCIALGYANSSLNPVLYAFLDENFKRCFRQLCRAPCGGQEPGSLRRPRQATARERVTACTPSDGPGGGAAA
T2 sequence (P33535 whole entry): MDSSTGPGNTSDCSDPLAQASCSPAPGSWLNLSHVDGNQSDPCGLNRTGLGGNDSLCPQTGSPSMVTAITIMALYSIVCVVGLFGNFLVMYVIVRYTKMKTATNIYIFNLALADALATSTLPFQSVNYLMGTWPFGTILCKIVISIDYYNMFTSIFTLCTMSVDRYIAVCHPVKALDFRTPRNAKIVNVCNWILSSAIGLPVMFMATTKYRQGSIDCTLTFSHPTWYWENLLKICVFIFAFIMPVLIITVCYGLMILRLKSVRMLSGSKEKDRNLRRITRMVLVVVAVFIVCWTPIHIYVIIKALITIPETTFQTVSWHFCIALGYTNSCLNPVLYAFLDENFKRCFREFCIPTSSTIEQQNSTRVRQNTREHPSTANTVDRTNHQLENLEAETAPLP
T3 sequence (P35372 whole entry): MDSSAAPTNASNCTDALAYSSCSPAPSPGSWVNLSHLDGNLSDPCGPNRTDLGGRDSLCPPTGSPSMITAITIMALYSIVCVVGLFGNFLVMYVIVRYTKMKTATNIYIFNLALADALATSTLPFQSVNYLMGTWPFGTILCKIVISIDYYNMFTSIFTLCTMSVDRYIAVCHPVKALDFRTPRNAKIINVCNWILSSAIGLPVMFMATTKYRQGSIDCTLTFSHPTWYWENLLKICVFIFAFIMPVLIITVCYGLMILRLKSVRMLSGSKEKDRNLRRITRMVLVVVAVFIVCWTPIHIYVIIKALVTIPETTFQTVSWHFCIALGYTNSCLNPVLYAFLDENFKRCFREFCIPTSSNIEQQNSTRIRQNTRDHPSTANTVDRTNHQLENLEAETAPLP

Consider `COc1ccc(CN(C(=O)[C@@H](N)Cc2c(C)cc(O)cc2C)[C@@H](C)c2nc(-c3ccccc3)c[nH]2)cc1-c1nnn[nH]1` [Cpd 307], for which the values for the pKi on delta opioid receptor and at mu opioid receptor were 10.15 and 9.40, respectively.

As to `COc1ccc(CN(C(=O)[C@@H](N)Cc2c(C)cc(O)cc2C)[C@@H](C)c2nc(-c3ccccc3)c[nH]2)cc1C(=O)Nc1ccccc1` [Cpd 305], the pKi on delta opioid receptor was 8.91; on mu opioid receptor, 9.70.

As for `C[C@@H](c1nc(-c2ccccc2)c[nH]1)N(Cc1ccc(C(=O)O)o1)C(=O)[C@@H](N)Cc1ccc(C(N)=O)cc1` [Cpd 304], the pKi is 7.39 on human mu opioid receptor, 6.92 at delta opioid receptor and 6.79 at mu opioid receptor.

`COc1ccc(CN(C(=O)[C@@H](N)Cc2c(C)cc(O)cc2C)[C@@H](C)c2nc(-c3ccccc3)c[nH]2)cc1C(=O)Nc1cccc(C(=O)O)c1` [Cpd 306]: the results for the pKi on delta opioid receptor and on mu opioid receptor were 9.74 and 9.05, respectively.

Take `COc1ccc(CN(C(=O)[C@@H](N)Cc2c(C)cc(O)cc2C)[C@@H](C)c2nc(-c3ccccc3)c[nH]2)cc1C(=O)Nc1ccc(C(=O)O)cc1` [Cpd 308]: the values for the pKi at delta opioid receptor and at mu opioid receptor were 9.32 and 8.92, respectively.
